In brackets after ≈: the same amount, converted by molar mass. One block for each compound: values may come before it.
Legend:
Test in all cases: ≥ marks a high value that may be exact or a test limit, other limits are often not marked, values filed in µg/mL are converted to µM
[1] = system: Pseudomonas aeruginosa 37
[2] = system: Pseudomonas aeruginosa 6206
Staphylococcus aureus 31 = system: Staphylococcus aureus 31
Staphylococcus aureus 38 = system: Staphylococcus aureus 38
[3] = system: Pseudomonas aeruginosa 6294
[4] = system: Staphylococcus aureus ATCC 6538
[5] = system: Pseudomonas aeruginosa ATCC 19660
[6] = system: Candida albicans ATCC 2002
[7] = system: Candida albicans 08022821
[8] = system: Escherichia coli ATCC 25922
[9] = system: Staphylococcus aureus ATCC 2592
[10] = system: Candida albicans 08032815
[11] = system: Candida albicans 08030809
Bacillus subtilis = system: Bacillus subtilis
[12] = system: Candida albicans 08022710
[13] = system: Staphylococcus aureus ATCC 29213
[14] = system: Acinetobacter johnsonii NCDC 0072
[15] = system: Pseudomonas aeruginosa NCDC 0105
[16] = system: Pseudomonas aeruginosa ATCC 27853
[17] = system: Staphylococcus aureus NCDC 0111
[18] = system: Salmonella enterica subsp. enterica serovar Typhimurium ATCC 14028
[19] = system: Bacillus cereus NCDC 0240
[20] = system: Escherichia coli MTCC 0723
[21] = system: Listeria monocytogenes ATCC 19111
[22] = system: Trichosporon beigelii KCTC 7707
[23] = system: Staphylococcus aureus ATCC 25923
[24] = system: Bacillus subtilis KCTC 1998
[25] = system: Staphylococcus epidermidis ATCC 12228
[26] = system: Listeria monocytogenes KCTC 3710
[27] = system: Salmonella typhimurium KCTC 1926
[28] = system: Proteus vulgaris KCTC 2433
[29] = system: Aspergillus flavus KCTC 6905
[30] = system: Aspergillus awamori KCTC 6915
[31] = system: Pseudomonas aeruginosa ATCC 15692
[32] = system: Aspergillus fumigatus KCTC 6145
[33] = system: Aspergillus parasiticus KCTC 6598
[34] = system: Candida albicans KCTC 7270
[35] = system: Staphylococcus aureus CIP 53.156
[36] = system: Escherichia coli CIP 76.24
Candida albicans SC5314 = system: Candida albicans SC5314
[37] = system: Escherichia coli DH5alpha
[38] = system: Xanthomonas oryzae pv. oryzae
[39] = system: Xanthomonas campestris pv. campestris
[40] = system: Cryptococcus neoformans var. grubii H99

MIC [1]: ≥ 33 µM | MIC [2]: ≥ 66 µM | MIC (Staphylococcus aureus 31): ≥ 33 µM | MIC (Staphylococcus aureus 38): ≥ 33 µM | MIC [3]: ≥ 66 µM | MIC [4]: 16.5 µM (≈ 62.5 µg/mL) | MIC [5]: ≥ 132 µM
Structure (SMILES): CC[C@H](C)[C@H](NC(=O)[C@H](Cc1c[nH]c2ccccc12)NC(=O)[C@H](CO)NC(=O)[C@@H](NC(=O)[C@H](CC(C)C)NC(=O)[C@@H](N)[C@@H](C)O)[C@@H](C)CC)C(=O)N[C@@H](CCCCN)C(=O)N[C@@H](CC(N)=O)C(=O)N[C@@H](CCCCN)C(=O)N[C@@H](CCCN=C(N)N)C(=O)N[C@@H](CCCCN)C(=O)N[C@@H](CCC(N)=O)C(=O)N[C@@H](CCCN=C(N)N)C(=O)N1CCC[C@H]1C(=O)N[C@@H](CCCN=C(N)N)C(=O)N[C@H](C(=O)N[C@@H](CO)C(=O)N[C@@H](CCCN=C(N)N)C(=O)N[C@@H](CCCN=C(N)N)C(=O)N[C@@H](CCCN=C(N)N)C(=O)N[C@@H](CCCN=C(N)N)C(=O)N[C@@H](CCCN=C(N)N)C(=O)N[C@@H](CCCN=C(N)N)C(=O)NCC(=O)NCC(=O)N[C@@H](CCCN=C(N)N)C(=O)N[C@@H](CCCN=C(N)N)C(=O)N[C@@H](CCCN=C(N)N)C(=O)N[C@@H](CCCN=C(N)N)C(=O)O)C(C)C [TLISWIKNKRKQRPRVSRRRRRRGGRRRR]

MIC [6]: 0.265 µM (≈ 0.59 µg/mL) | MIC [7]: 1.4 µM (≈ 3.13 µg/mL) | MIC [8]: 4.21 µM (≈ 9.38 µg/mL) | MIC [9]: 0.525 µM (≈ 1.17 µg/mL) | MIC [10]: 1.25 µM (≈ 2.79 µg/mL) | MIC [11]: 0.628 µM (≈ 1.4 µg/mL) | MIC (Bacillus subtilis): 0.525 µM (≈ 1.17 µg/mL) | MIC [12]: 2.1 µM (≈ 4.69 µg/mL)
Structure (SMILES): CC(C)[C@H](N)C(=O)N[C@@H](CCCCN)C(=O)N[C@@H](CCCN=C(N)N)C(=O)N[C@@H](Cc1c[nH]c2ccccc12)C(=O)N[C@@H](CCCCN)C(=O)N[C@@H](CCCCN)C(=O)N[C@@H](Cc1c[nH]c2ccccc12)C(=O)N[C@@H](CCCN=C(N)N)C(=O)N[C@@H](Cc1c[nH]c2ccccc12)C(=O)N[C@@H](CCCCN)C(=O)N[C@@H](Cc1c[nH]c2ccccc12)C(=O)N[C@@H](CCCCN)C(=O)N[C@@H](CCCCN)C(=O)N[C@@H](Cc1c[nH]c2ccccc12)C(=O)N[C@H](C(N)=O)C(C)C [VKRWKKWRWKWKKWV]

MIC [13]: 3 µM (≈ 5.32 µg/mL) | MIC [14]: ≥ 200 µM | MIC [15]: ≥ 200 µM | MIC [16]: > 200 µM | MIC [17]: 25 µM (≈ 44.4 µg/mL) | MIC [18]: 100 µM (≈ 177 µg/mL) | MIC [19]: ≥ 100 µM | MIC [20]: ≥ 200 µM | MIC [21]: 6 µM (≈ 10.6 µg/mL)
Structure (SMILES): CC[C@H](C)[C@H](NC(=O)[C@H](Cc1c[nH]c2ccccc12)NC(=O)[C@@H]1CCCN1C(=O)[C@H](CC(C)C)NC(=O)CN)C(=O)N[C@@H](CC(C)C)C(=O)N[C@@H](CC(C)C)C(=O)N[C@@H](CCCN=C(N)N)C(=O)N[C@@H](Cc1c[nH]c2ccccc12)C(=O)N[C@@H](CC(C)C)C(=O)N[C@@H](Cc1ccccc1)C(=O)N[C@@H](Cc1ccccc1)C(=O)N[C@@H](CCCN=C(N)N)C(=O)NCC(=O)O [GLPWILLRWLFFRG]

MIC [22]: 16 µM (≈ 31.8 µg/mL) | MIC [23]: 4 µM (≈ 7.95 µg/mL) | MIC [24]: 4 µM (≈ 7.95 µg/mL) | MIC [8]: 4 µM (≈ 7.95 µg/mL) | MIC [25]: 2.83 µM (≈ 5.62 µg/mL) | MIC [26]: 2 µM (≈ 3.97 µg/mL) | MIC [27]: 2 µM (≈ 3.97 µg/mL) | MIC [28]: 4 µM (≈ 7.95 µg/mL) | MIC [29]: 16 µM (≈ 31.8 µg/mL) | MIC [30]: 16 µM (≈ 31.8 µg/mL) | MIC [31]: 2 µM (≈ 3.97 µg/mL) | MIC [32]: 8 µM (≈ 15.9 µg/mL) | MIC [33]: 8 µM (≈ 15.9 µg/mL) | MIC [34]: 8 µM (≈ 15.9 µg/mL)
Structure (SMILES): CC[C@H](C)[C@H](NC(=O)[C@H](CCCCN)NC(=O)[C@H](CCCCN)NC(=O)[C@H](C)NC(=O)[C@H](CC(C)C)NC(=O)[C@H](CCCCN)NC(=O)[C@H](CCCCN)NC(=O)[C@H](CC(C)C)NC(=O)[C@H](CCCN=C(N)N)NC(=O)[C@H](CCCCN)NC(=O)[C@@H](N)Cc1ccccc1)C(=O)N[C@@H](Cc1c[nH]c2ccccc12)C(=O)N[C@@H](CC(N)=O)C(=O)N[C@@H](Cc1c[nH]c2ccccc12)C(=O)N[C@@H](CCCCN)C(N)=O [FKRLKKLAKKIWNWK]

MIC [35]: 9 µM (≈ 16.6 µg/mL) | MIC [36]: ≥ 49 µM
Structure (SMILES): CC[C@H](C)[C@H](N)C(=O)N1CCC[C@H]1C(=O)N[C@@H](Cc1c[nH]c2ccccc12)C(=O)NCC(=O)N[C@@H](CCCCN)C(=O)N[C@H](C(=O)N[C@@H](CCCCN)C(=O)N[C@@H](CC(=O)O)C(=O)N[C@@H](Cc1ccccc1)C(=O)N[C@@H](CC(C)C)C(=O)N[C@H](C(=O)NCC(=O)NCC(=O)N[C@@H](CCSC)C(=O)N[C@@H](CCCCN)C(=O)N[C@@H](C)C(=O)N[C@H](C(N)=O)C(C)C)C(C)C)C(C)C [IPWGKVKDFLVGGMKAV]

MIC (Candida albicans SC5314): ≥ 100 µM | MIC [37]: ≥ 100 µM | MIC [38]: ≥ 100 µM | MIC [16]: > 100 µM | MIC [39]: ≥ 100 µM | MIC (Bacillus subtilis): ≥ 100 µM | MIC [40]: ≥ 100 µM
Structure (SMILES): CC(C)C[C@H](NC(=O)CNC(=O)[C@H](CS)NC(=O)CNC(=O)[C@H](CC(N)=O)NC(=O)CNC(=O)[C@H](Cc1c[nH]c2ccccc12)NC(=O)CNC(=O)[C@H](CCCN=C(N)N)NC(=O)[C@H](CC(=O)O)NC(=O)[C@@H](N)C(C)C)C(=O)N[C@@H](Cc1ccccc1)C(=O)NCC(=O)N[C@@H](CCCCN)C(=O)NCC(=O)NCC(=O)O [VDRGWGNGCGLFGKGG]
